The results in this text go back to patent publication US8106034B2, “Angiotensin II receptor antagonists” (Merck Sharp & Dohme Corp., priority 2008, dated 2012).

For this assay, the system named is isolated rabbit thoracic aorta preparations. Put plainly: Vessel relaxation in isolated rabbit thoracic aorta preparations. The settings on record: Oryctolagus cuniculus; in vitro, rabbit aortic rings precontracted with noradrenaline, functional endothelium present. The method, then: The ability of the compounds to induce vasorelaxation was tested in vitro in isolated rabbit thoracic aorta preparations (Wanstall J. C. et al., Br. J. Pharmacol., 134:463-472, 2001). Male New Zealand rabbits were anaesthetized with thiopental-Na (50 mg/kg, iv), sacrificed by exsanguinations and then the thorax was opened and the aorta dissected. Aortic ring preparations (4 mm in length) were set up in physiological salt solution (PSS) at 37° C. in small organ chambers (5 ml). The composition of PSS was (mM): NaCl 130, NaHCO3 14.9, KH2PO4 1.2, MgSO4 1.2, HEPES 10, CaCl2, ascorbic acid […] and glucose 1.1 (95% O2/5% CO2; pH 7.4). Each ring was mounted under 2 g passive tension. Isometric tension was recorded with a Grass transducer (Grass FT03) attached to a BIOPAC MP150 System. Preparations were allowed to equilibrate for 1 h, and then contracted submaximally with noradrenaline (NA, 1 μM) and, when the contraction was stable, acetylcholine (ACh, 10 μM) was added. A relaxant response to ACh indicated the presence of a functional endothelium. […] When a stable precontraction was reached, a cumulative concentration-response curve to either of the vasorelaxant agents was obtained in the presence of a functional endothelium. Each arterial ring was exposed to only one combination of inhibitor and vasorelaxant. […]
Examples 3 and 5 were evaluated for vessel relaxation.

Take `CCCCc1nc(Cl)c(C(=O)OCO/N=[N+](\[O-])N2CCC[C@H]2C(=O)O)n1Cc1ccc(-c2ccccc2-c2nnn[nH]2)cc1` [Example 5, O^2-({[(2-butyl-4-chloro-1-{[2′-(1H-tetrazol-5-yl)biphenyl-4-yl]methyl}-1H-imidazol-5-yl)carbonyl]oxy}methyl)1-[2S-(carboxylato)pyrrolidin-1-yl]diazen-1-ium-1,2-diolate]: the 50% effective concentration (EC50) came out at 18.7 µM.
Take `CCCCc1nc(Cl)c(C(=O)OCO/N=[N+](\[O-])N2CCCCC2CO)n1Cc1ccc(-c2ccccc2-c2nnn[nH]2)cc1` (centres unmarked) [Example 3, O^2-({[(2-butyl-4-chloro-1-{[2′-(1H-tetrazol-5-yl)biphenyl-4-yl]methyl}-1H-imidazol-5-yl)carbonyl]oxy}methyl)1-[2-(hydroxymethyl)piperidin-1-yl]diazen-1-ium-1,2-diolate]: the EC50 stood at 5.3 µM.
